# US20220146500A1, “COMPOSITIONS AND METHODS FOR ENHANCING MUCOSAL IMMUNITY” (Yale University, priority 2019, published 2022)
# How the values were obtained:
# polyclonal T cell lines = experiment: Culture of Chlamydia-specific polyclonal T cell lines with TGFβ1, IL-13 in supernatant after anti-CD3 activation; assay type: cell-based, mouse
# Protocol: FIG. 9 is a histogram depicting polyclonal T cell lines with fading IL-13 production cultured as per usual protocol and, in parallel, the usual protocol plus 10 ng/ml TGFβ1. At the end of one week the T cell lines were activated with immobilized anti-CD3 and IL-13 levels measured in culture supernatant. […] It was also noted that expansions in TGFβ1 conditions yielded˜50% more cells per well.
# Conventional multifunction Chlamydia-specific Th1 clone 4uvmo-3 was previously described (Jayarapu et al., 2009, Infect Immun 77:4469-4479). For the new B-cell APC-derived T cells C57BL/6 mice were treated with 2.5 mg of medroxyprogesterone (Pfizer) delivered subcutaneously, then infected 7 days later with 5×10^4 IFU C. muridarum. Mice that cleared infection, >6 weeks post-infection, were used as the source of immune B and T cells. Initial Chlamydia-specific immune-B-cell-derived polyclonal T cell populations and clones were derived as follows. Splenocytes were harvested from immune mice. Immune B cells were purified from a portion of those splenocytes by “untouched” magnetic bead separation (Miltenyi Biotech). Immune B cells were pulsed with UV-MoPn (3.5×10^6 IFU equivalents per 7.5×10^5 B cells suspended at 7.5×10^6/ml; ˜5 IFU/cell) or soluble antigen (7.5 ul per 7.5×10^5 B cells suspended at 7.5×10^6/ml) for 1 h at 37° C. Antigen-pulsed immune B cells were transferred to 7.5 cc of “RPMI complete media”, pelleted, media containing antigen removed, then washed two more times with 7.5 cc of media (˜400,000-fold) to eliminate all non-cell bound or internalized Chlamydia antigen; the purpose of extended washing was to ensure that antigen presentation was limited to immune B cells. Primary stimulation wells were setup with 2.5×10^6 immune splenocytes plus 7.5×10^5 antigen-pulsed immune B cells in 0.75 ml “RPMI complete media” supplemented with recombinant cytokines and conditioned media as previously described (Johnson et al., 2014, Immunology 142:248-257); later T cell derivations during the course of the project included addition of 5 ng/ml recombinant murine TGFβ1 to the media. Limiting dilution cloning was done in media supplemented with recombinant cytokines/conditioned media with 10-20 ng/ml TGFβ1. Re-stimulation/maintenance of T cell clones was done weekly in 48-well plates by adding 100-200 k T cell clone cells to 1.5×10^6 irradiated naive splenocytes and 7.5×10^5 irradiated relevant-antigen-pulsed/washed immune B cells as feeders in media supplemented with recombinant cytokines/conditioned media including 2.5-10 ng/ml TGFβ1. Recombinant mouse cytokines were purchased from the same vendor (R&D Systems; Minneapolis, Minn.) except for TGFP1 (Ebioscience, San Diego, Calif.). […]
# C. muridarum = conditions: upper reproductive tract epithelial cell line; cited from earlier work
Substance,"IL-13 production after one week of culture (polyclonal T cell lines; 10 ng/ml TGFβ1, lines with fading IL-13 production, anti-CD3 activation)",more cells per well in expansions (polyclonal T cell lines; TGFβ1 conditions versus usual protocol),durable IL-13 production with increasing passage number (polyclonal T cell lines; immune-B-cell-APC-derived polyclonal T cell lines),IL-13 production (polyclonal T cell lines; immune-splenocyte-APC-derived T cell lines),effect on C. muridarum replication (C. muridarum)
TGFβ1: recombinant murine TGFβ1,With the exception of B2 all the lines made more IL-13,~50%,required addition of TGFβ1 to the media,did not result in IL-13 production,–
IL-13: Th2 cytokine,–,–,–,–,modestly enhances C. muridarum replication
